Results reported in PubChem BioAssay (NCI).
“And” between values parts separate entries of the source, which are not always exact repeats. Equal entries are not always repeated.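 All cell lines were grown in 96-well plates and treated with compound for 48 hours. GI50 = concentration required for 50% inhibition of growth. TGI denotes the concentration required for complete inhibition of growth.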

Key:
Assay in all cases: DTP human tumour cell line panel, 48 h
[1] = system: DMS 273 small cell lung
[2] = system: XF 498 CNS
[3] = system: DLD-1 colon
[4] = system: SF-295 CNS
[5] = system: LXFL 529 NSCLC
[6] = system: PC-3 prostate
[7] = system: BT-549 breast
[8] = system: MCF7 breast
[9] = system: MDA-MB-231 breast
[10] = system: MDA-MB-435

| SMILES | TGI [1] | TGI [2] | TGI [3] | TGI [4] | TGI [5] | also measured |
| --- | --- | --- | --- | --- | --- | --- |
| C=CCn1c(=O)c(C(=O)NC(=O)OCC)cn(C2CCCCC2)c1=O | > 100 µM | > 100 µM | > 100 µM | > 100 µM | > 100 µM | – |
| Cc1cc(Cl)ccc1Nc1nc2c(s1)C(=O)c1ccccc1C2=O | 5.71 µM | – | 12.5 µM | 24.2 µM | 12.8 µM | TGI [6]: 8.05 µM; TGI [7]: 2.9 µM; TGI [8]: 3.72 µM; TGI [9]: 12.9 µM |
| O=C1CCCCCCCCCCOC(=O)CCCCCCCCCCO1 | > 100 µM | – | > 100 µM | > 100 µM | > 100 µM | – |
| O=C(CC1(O)C(=O)Nc2ccc([N+](=O)[O-])cc21)c1ccc(Br)cc1 (stereo unspecified) | – | > 100 µM | > 100 µM | > 100 µM | > 100 µM | – |
| C1=CC(=NN=P(c2ccccc2)(c2ccccc2)c2ccccc2)C=C1 | > 100 µM | > 100 µM | > 100 µM | – | > 100 µM | – |
| C=CNC(=S)n1nc(-c2ccccc2NC(=O)C(F)(F)F)c(=O)n(C(=S)NC=C)c1=S | > 100 µM | 83 µM | 49.3 µM | 81.6 µM | > 100 µM | – |
| C/C(CC(=O)Nc1ccc([N+](=O)[O-])cc1)=N\Nc1ccc([N+](=O)[O-])cc1[N+](=O)[O-] | > 100 µM | > 100 µM | > 100 µM | > 100 µM | > 100 µM | – |
| O=C(O)CCCc1cc2c(s1)-c1cccc3cccc-2c13 | > 100 µM | > 100 µM | > 100 µM | > 100 µM | > 100 µM | – |
| O=C(NC(Cc1ccccc1)C(=O)CCl)OCc1ccccc1 (stereo unspecified) | 16.4 µM | – | 21.5 µM | 33 µM and 29.2 µM | 13.9 µM | GI50 [6]: 6.13 µM; TGI [6]: 20.3 µM; GI50 [10]: 3.59 µM; TGI [10]: 14.3 µM; GI50 [7]: 2.31 µM; TGI [7]: 6 µM; GI50 [8]: 2.96 µM; TGI [8]: 13.5 µM; GI50 [9]: 7.02 µM; TGI [9]: 20.7 µM |
| CC(O)c1ccc(C(O)/C(=N\NC(=O)c2ccncc2)c2nc3ccc([N+](=O)[O-])cc3[nH]c2=O)cc1 (stereo unspecified) | > 100 µM | > 100 µM | > 100 µM | > 100 µM | > 100 µM | – |
| Cc1cc(N(CCC#N)CCC#N)ccc1CC1N=C(c2ccccc2)OC1=O (stereo unspecified) | > 100 µM | > 100 µM | > 100 µM | > 100 µM | > 100 µM | – |
| CCOC(=O)Cn1c(=O)[nH]c(=O)c2[nH]cnc21 | > 100 µM | – | > 100 µM | – | > 100 µM | – |
| CSCC(COC(C)=O)(CSC)c1ccncc1 | > 100 µM | – | – | > 100 µM | > 100 µM | – |
| O=C(CC(=O)N1N=C(c2ccccc2)C(N=Nc2ccccc2Cl)C1=O)Nc1ccccc1Cl (stereo unspecified) | > 100 µM | 51.1 µM | > 100 µM | 65.3 µM | > 100 µM | – |
| COc1ccc(NC(=O)C2=CC(=O)c3ccc(O)cc3C2=O)c(OC)c1 | – | > 100 µM | > 100 µM | > 100 µM | > 100 µM | – |
| COC1C(C)OC(OC2CC(C)(O)Cc3cc4c(c(O)c32)C(=O)c2c(O)cc3c(c2C4=O)OC2OC3(C)C(O)C(N(C)C)C2O)C(OC)C1(C)OC (stereo unspecified) | 0.557 µM and 0.137 µM | 0.292 µM and 0.0483 µM | 5.12 µM and 3.91 µM | – | 2.84 µM | GI50 [1]: 0.0298 µM; TGI [6]: 0.00375 µM; GI50 [2]: 0.03 µM; TGI [10]: 0.00306 µM; GI50 [3]: 0.183 µM; TGI [7]: 0.00655 µM; GI50 [4]: 0.0538 µM and 0.0356 µM; TGI [8]: 0.413 µM |
| CCCCC1N=CNc2c1ccc1c2[nH]c2ccccc21 (stereo unspecified) | 3.38 µM | 3.4 µM | 6.3 µM | 7.25 µM | 3.78 µM | TGI [6]: 3.23 µM; TGI [10]: 3.35 µM; TGI [9]: 3.3 µM |
| O=[P+](O)c1cccnc1 | > 100 µM | > 100 µM | > 100 µM | > 100 µM | > 100 µM | – |

| SMILES | TGI [1] | TGI [2] | TGI [3] | TGI [4] | TGI [5] | also measured |
| --- | --- | --- | --- | --- | --- | --- |
| Cc1cc2c(C)nn(Cc3ccccc3Cl)c2c(C#N)c1C | > 100 µM | > 100 µM | > 100 µM | > 100 µM | > 100 µM | – |
| C=C1CCC2(C(C)=O)COC1(C)O2 (stereo unspecified) | > 100 µM | > 100 µM | > 100 µM | > 100 µM | – | – |
| C/C(CC(=O)Nc1cccc(C)c1C)=N\NC(N)=S | > 100 µM | > 100 µM | > 100 µM | > 100 µM | > 100 µM | – |
| C1C[S][Ge]2([S]CCS1)[S]CCSCC[S]2 | > 100 µM | – | > 100 µM | – | > 100 µM | GI50 [1]: > 100 µM; GI50 [3]: > 100 µM; GI50 [5]: > 100 µM |
| Cc1cc(C)c(C2=NO[C@@H]3C(=O)N(c4ccc(Cc5ccc(N6C(=O)[C@H]7C(c8c(C)cc(C)cc8C)=NO[C@H]7C6=O)cc5)cc4)C(=O)[C@H]23)c(C)c1 | > 100 µM | > 100 µM | > 100 µM | > 100 µM | > 100 µM | – |
| CCOC(=O)CP(=S)(S)c1ccccc1 (stereo unspecified) | > 100 µM | > 100 µM | > 100 µM | – | > 100 µM | – |
| COC(=O)C1=Cc2cn(S(=O)(=O)c3ccc(C)cc3)c3cccc(c23)C(C=C(C)C)N1C(C)=O (stereo unspecified) | > 100 µM | > 100 µM | > 100 µM | > 100 µM | > 100 µM | – |
| CN(CCCCN)c1ccc2c(=O)[nH][nH]c(=O)c2c1 | > 100 µM | > 100 µM | > 100 µM | > 100 µM | > 100 µM | – |
| Cc1cc(C)c(C(=O)/C(=C/c2ccccc2)c2ccccc2)c(C)c1 | – | > 100 µM | > 100 µM | > 100 µM | > 100 µM | – |
| O=c1sc(-c2nc3ccccc3[nH]2)c(/N=C/c2ccccc2)n1-c1ccccc1 | > 100 µM | 54.7 µM | > 100 µM | > 100 µM | > 100 µM | – |
| Cc1ccc(S(=O)(=O)OC2CSSCC2OS(=O)(=O)c2ccc(C)cc2)cc1 (stereo unspecified) | 21.8 µM | – | 24.7 µM | 30.5 µM | 23.6 µM | – |
| CN(CC1NCCCC1O)C12CC3CC(CC(C3)C1)C2 (stereo unspecified) | > 100 µM | > 100 µM | > 100 µM | > 100 µM | > 100 µM | – |
| CC(C)OC(=O)c1cccnc1/C=N/O | > 100 µM | > 100 µM | > 100 µM | > 100 µM | > 100 µM | – |
| c1ccc(N2N=NC3C4CC(C5c6ccccc6C45)C32)cc1 (stereo unspecified) | > 100 µM | 38.5 µM | > 100 µM | > 100 µM | > 100 µM | – |
| c1cnc2nc3n(c2c1)CSC3 | – | > 100 µM | > 100 µM | > 100 µM | > 100 µM | – |
| O=Cc1cn(S(=O)(=O)c2ccccc2)c2ccccc12 | – | > 100 µM | > 100 µM | > 100 µM | > 100 µM | – |
| [Au+].c1c[n-]cn1.c1ccc([PH+](c2ccccc2)c2ccccc2)cc1 | > 44 µM | – | – | 26.6 µM | 2.95 µM | GI50 [1]: 7.87 µM; GI50 [6]: 4.28 µM; TGI [6]: 17.3 µM; GI50 [10]: 5.17 µM; TGI [10]: 23.1 µM; GI50 [7]: 3.29 µM; TGI [7]: > 100 µM; GI50 [4]: 11.8 µM; GI50 [5]: 1.59 µM |
| COC(=O)c1cc2c(nc1C)-c1ccccc1OS2(=O)=O | > 100 µM | > 100 µM | > 100 µM | > 100 µM | > 100 µM | – |
